Numbers after ± are expanded uncertainties.
Assays:
[1] = Molar enthalpy of transition or fusion; conditions: Adiabatic calorimetry
[2] = Adiabatic calorimetry

For `N#CCCNc1ccccc1` [3-anilinopropanenitrile], the “Molar enthalpy of transition or fusion” value ([1]; Crystal 1) was 0.2342 ± 0.0012 kcal/mol, the “Molar enthalpy of transition or fusion” value ([1]; Crystal 2) was 4.6367 ± 0.0012 kcal/mol and the Triple point temperature ([2]; Crystal 1) was 323.5 ± 0.1 K. For the same compound, the Triple point temperature ([2]; Crystal 2) was 310.63 ± 0.05 K.

Reference: the NIST ThermoML archive (doi:10.1016/j.tca.2004.12.015)
